{"source": "the supplement of paper PMC10331698", "experiment_in_all_cases": "LOEC (log10 uM (lowest observed effect concentration))", "key": {"[1]": {"compound": "C=CC(=O)OCCC(F)(F)C(F)(F)C(F)(F)C(F)(F)F [2-(Perfluorobutyl)ethyl acrylate]", "procedure": "(§1)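 BioMAP Diversity Plus panel in human primary cell co-cultures, 4 concentrations in duplicate blinded samples. Responses are log10 fold change versus DMSO control, processed with tcpl v2.1.0. A hit is called when responses at any concentration exceed the cutoff (the larger of 3*bmad or log10(1.2)); the lowest observed effect concentration (modl_ga, log10 uM) is reported for hits.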"}, "[2]": {"compound": "O=C(O)C(F)(F)C(F)(F)C(F)(F)C(F)(F)C(F)(F)C(F)(F)C(F)(F)C(F)(F)Cl [9-Chloro-perfluorononanoic acid]", "procedure": "as §1"}, "[3]": {"compound": "O=C(O)C(F)(F)C(F)(F)C(F)(F)C(F)(F)C(F)(F)C(F)(F)C(F)(F)C(F)(F)C(F)(F)C(F)(F)C(F)(F)C(F)(F)F [Perfluorotridecanoic acid]", "procedure": "as §1"}, "Azathioprine": {"compound": "Cn1cnc([N+](=O)[O-])c1Sc1ncnc2[nH]cnc12 [Azathioprine]", "procedure": "as §1"}, "[4]": {"compound": "O=C(O)C(F)(F)OC(F)(F)C(F)(F)OC(F)(F)C(F)(F)C(F)(F)C(F)(F)F [Perfluoro-3,6-dioxadecanoic acid]", "procedure": "as §1"}, "Perfluorooctanamidine": {"compound": "N=C(N)C(F)(F)C(F)(F)C(F)(F)C(F)(F)C(F)(F)C(F)(F)C(F)(F)F [Perfluorooctanamidine]", "procedure": "as §1"}, "[5]": {"compound": "O=S(=O)(O)C(F)(F)C(F)(F)C(F)(F)C(F)(F)C(F)(F)C(F)(F)C(F)(F)C(F)(F)F [Potassium perfluorooctanesulfonate]", "procedure": "as §1"}, "[6]": {"compound": "O=S(=O)(O)C(F)(F)C(F)(F)C(F)(F)C(F)(F)C(F)(F)C(F)(F)C(F)(F)C(F)(F)F [Perfluorooctanesulfonic acid]", "procedure": "as §1"}}, "note": "± gives the standard deviation of the averaged measurements.", "data": [{"test system": "3C Eselectin down", "values": [{"measurement": "LOEC (log10 uM)", "setting": "[1]", "value": 1.78}]}, {"test system": "3C Eselectin up", "values": [{"measurement": "LOEC (log10 uM)", "setting": "[2]", "value": 1.78}]}, {"test system": "3C IL8 down", "values": [{"measurement": "LOEC (log10 uM)", "setting": "[3]", "value": "1.22 ± 0.37"}]}, {"test system": "3C MCP1 down", "values": [{"measurement": "LOEC (log10 uM)", "setting": "[2]", "value": 1.78}]}, {"test system": "3C SRB down", "values": [{"measurement": "LOEC (log10 uM)", "setting": "Azathioprine", "value": 1.48}, {"measurement": "LOEC (log10 uM)", "setting": "[4]", "value": 1.78}, {"measurement": "LOEC (log10 uM)", "setting": "[2]", "value": 1.78}]}, {"test system": "3C Thrombomodulin down", "values": [{"measurement": "LOEC (log10 uM)", "setting": "[1]", "value": "1.54 ± 0.34"}]}, {"test system": "3C TissueFactor down", "values": [{"measurement": "LOEC (log10 uM)", "setting": "[1]", "value": "1.54 ± 0.34"}]}, {"test system": "3C VCAM1 down", "values": [{"measurement": "LOEC (log10 uM)", "setting": "Perfluorooctanamidine", "value": 1.78}, {"measurement": "LOEC (log10 uM)", "setting": "[1]", "value": "1.54 ± 0.34"}, {"measurement": "LOEC (log10 uM)", "setting": "[2]", "value": 1.78}]}, {"test system": "4H SRB down", "values": [{"measurement": "LOEC (log10 uM)", "setting": "[3]", "value": "1.22 ± 0.37"}, {"measurement": "LOEC (log10 uM)", "setting": "[2]", "value": 1.78}]}, {"test system": "4H VEGFRII down", "values": [{"measurement": "LOEC (log10 uM)", "setting": "[3]", "value": 1.48}]}, {"test system": "BE3C EGFR down", "values": [{"measurement": "LOEC (log10 uM)", "setting": "[4]", "value": 1.78}, {"measurement": "LOEC (log10 uM)", "setting": "[5]", "value": 1.3}, {"measurement": "LOEC (log10 uM)", "setting": "[6]", "value": 1.3}, {"measurement": "LOEC (log10 uM)", "setting": "[2]", "value": 1.3}]}, {"test system": "BE3C ICAM1 down", "values": [{"measurement": "LOEC (log10 uM)", "setting": "[2]", "value": 1.78}]}, {"test system": "BE3C IL1a down", "values": [{"measurement": "LOEC (log10 uM)", "setting": "[4]", "value": 1.78}, {"measurement": "LOEC (log10 uM)", "setting": "[6]", "value": 1.78}, {"measurement": "LOEC (log10 uM)", "setting": "[2]", "value": "1.54 ± 0.34"}]}, {"test system": "BE3C ITAC down", "values": [{"measurement": "LOEC (log10 uM)", "setting": "[5]", "value": 1.3}, {"measurement": "LOEC (log10 uM)", "setting": "[6]", "value": "1.54 ± 0.34"}, {"measurement": "LOEC (log10 uM)", "setting": "[2]", "value": 1.3}]}, {"test system": "BE3C ITAC up", "values": [{"measurement": "LOEC (log10 uM)", "setting": "[4]", "value": 0.845}]}, {"test system": "BE3C Keratin818 down", "values": [{"measurement": "LOEC (log10 uM)", "setting": "[2]", "value": 1.78}]}, {"test system": "BE3C MIG down", "values": [{"measurement": "LOEC (log10 uM)", "setting": "[6]", "value": 1.78}, {"measurement": "LOEC (log10 uM)", "setting": "[2]", "value": 1.78}]}, {"test system": "BE3C MMP1 up", "values": [{"measurement": "LOEC (log10 uM)", "setting": "Perfluorooctanamidine", "value": 1.78}, {"measurement": "LOEC (log10 uM)", "setting": "[4]", "value": 1.3}, {"measurement": "LOEC (log10 uM)", "setting": "[5]", "value": "0.573 ± 0.39"}]}, {"test system": "BE3C SRB down", "values": [{"measurement": "LOEC (log10 uM)", "setting": "[5]", "value": 1.3}, {"measurement": "LOEC (log10 uM)", "setting": "[6]", "value": 1.3}, {"measurement": "LOEC (log10 uM)", "setting": "[2]", "value": "1.54 ± 0.34"}]}, {"test system": "BE3C tPA down", "values": [{"measurement": "LOEC (log10 uM)", "setting": "Azathioprine", "value": "1.22 ± 0.37"}, {"measurement": "LOEC (log10 uM)", "setting": "[4]", "value": 1.78}, {"measurement": "LOEC (log10 uM)", "setting": "[2]", "value": 1.78}]}, {"test system": "BE3C uPA down", "values": [{"measurement": "LOEC (log10 uM)", "setting": "[6]", "value": 1.78}, {"measurement": "LOEC (log10 uM)", "setting": "[2]", "value": 1.78}]}, {"test system": "BE3C uPAR down", "values": [{"measurement": "LOEC (log10 uM)", "setting": "[2]", "value": 1.78}]}, {"test system": "BE3C uPAR up", "values": [{"measurement": "LOEC (log10 uM)", "setting": "[5]", "value": "1.54 ± 0.34"}]}, {"test system": "BF4T ICAM1 down", "values": [{"measurement": "LOEC (log10 uM)", "setting": "[2]", "value": 1.78}]}, {"test system": "BF4T IL1a down", "values": [{"measurement": "LOEC (log10 uM)", "setting": "[2]", "value": 1.78}]}, {"test system": "BF4T IL8 up", "values": [{"measurement": "LOEC (log10 uM)", "setting": "[4]", "value": "1.07 ± 0.32"}]}, {"test system": "BF4T Keratin818 down", "values": [{"measurement": "LOEC (log10 uM)", "setting": "[2]", "value": 1.78}]}, {"test system": "BF4T MCP1 down", "values": [{"measurement": "LOEC (log10 uM)", "setting": "[4]", "value": "0.573 ± 0.39"}, {"measurement": "LOEC (log10 uM)", "setting": "[2]", "value": "0.801 ± 0.71"}]}, {"test system": "BF4T MMP1 down", "values": [{"measurement": "LOEC (log10 uM)", "setting": "[2]", "value": 1.78}]}, {"test system": "BF4T MMP3 up", "values": [{"measurement": "LOEC (log10 uM)", "setting": "[4]", "value": 1.3}]}, {"test system": "BF4T MMP9 down", "values": [{"measurement": "LOEC (log10 uM)", "setting": "[2]", "value": 1.78}]}, {"test system": "BF4T PAI1 down", "values": [{"measurement": "LOEC (log10 uM)", "setting": "[2]", "value": 1.78}]}, {"test system": "BF4T SRB down", "values": [{"measurement": "LOEC (log10 uM)", "setting": "[2]", "value": 1.78}]}, {"test system": "BF4T VCAM1 down", "values": [{"measurement": "LOEC (log10 uM)", "setting": "Azathioprine", "value": 1.48}, {"measurement": "LOEC (log10 uM)", "setting": "[2]", "value": 1.3}]}, {"test system": "BF4T tPA down", "values": [{"measurement": "LOEC (log10 uM)", "setting": "[2]", "value": 1.3}]}, {"test system": "BF4T uPA down", "values": [{"measurement": "LOEC (log10 uM)", "setting": "[2]", "value": 1.78}]}, {"test system": "BT Bcell Proliferation up", "values": [{"measurement": "LOEC (log10 uM)", "setting": "[2]", "value": 1.78}]}, {"test system": "BT PBMCCytotoxicity down", "values": [{"measurement": "LOEC (log10 uM)", "setting": "[1]", "value": "1.54 ± 0.34"}]}, {"test system": "BT PBMCCytotoxicity up", "values": [{"measurement": "LOEC (log10 uM)", "setting": "[4]", "value": 1.78}, {"measurement": "LOEC (log10 uM)", "setting": "[2]", "value": 1.78}]}, {"test system": "BT sIgG down", "values": [{"measurement": "LOEC (log10 uM)", "setting": "Azathioprine", "value": -0.0458}, {"measurement": "LOEC (log10 uM)", "setting": "[1]", "value": 1.78}]}, {"test system": "BT xIL2 down", "values": [{"measurement": "LOEC (log10 uM)", "setting": "Azathioprine", "value": 1.48}, {"measurement": "LOEC (log10 uM)", "setting": "[1]", "value": 1.78}]}, {"test system": "BT xIL6 down", "values": [{"measurement": "LOEC (log10 uM)", "setting": "Azathioprine", "value": 1.48}, {"measurement": "LOEC (log10 uM)", "setting": "[1]", "value": 1.78}]}, {"test system": "BT xIL17A down", "values": [{"measurement": "LOEC (log10 uM)", "setting": "Azathioprine", "value": 1.48}, {"measurement": "LOEC (log10 uM)", "setting": "[1]", "value": "1.54 ± 0.34"}]}, {"test system": "BT xIL17F down", "values": [{"measurement": "LOEC (log10 uM)", "setting": "Azathioprine", "value": 1.48}, {"measurement": "LOEC (log10 uM)", "setting": "[1]", "value": 1.3}]}, {"test system": "BT xTNFa down", "values": [{"measurement": "LOEC (log10 uM)", "setting": "Azathioprine", "value": "0.716 ± 0.34"}, {"measurement": "LOEC (log10 uM)", "setting": "[1]", "value": 1.3}]}, {"test system": "CASM3C Proliferation down", "values": [{"measurement": "LOEC (log10 uM)", "setting": "Azathioprine", "value": 1.48}]}, {"test system": "CASM3C SAA up", "values": [{"measurement": "LOEC (log10 uM)", "setting": "[3]", "value": "0.477 ± 0.68"}]}, {"test system": "IMphg CD40 down", "values": [{"measurement": "LOEC (log10 uM)", "setting": "Azathioprine", "value": 1.48}, {"measurement": "LOEC (log10 uM)", "setting": "[4]", "value": 1.78}, {"measurement": "LOEC (log10 uM)", "setting": "[3]", "value": 1.48}, {"measurement": "LOEC (log10 uM)", "setting": "[2]", "value": 1.78}]}, {"test system": "IMphg CD69 down", "values": [{"measurement": "LOEC (log10 uM)", "setting": "[4]", "value": 1.78}, {"measurement": "LOEC (log10 uM)", "setting": "[2]", "value": 1.78}]}, {"test system": "IMphg MCP1 down", "values": [{"measurement": "LOEC (log10 uM)", "setting": "[2]", "value": 1.78}]}, {"test system": "IMphg MCSF down", "values": [{"measurement": "LOEC (log10 uM)", "setting": "Azathioprine", "value": 1.48}]}, {"test system": "IMphg SRB down", "values": [{"measurement": "LOEC (log10 uM)", "setting": "[2]", "value": 1.78}]}]}
